# Columns and labels:
# [1] = tested on: ALL-SIL (T-Lymphoblastic Leukemia); test: Bliss excess, mean over the matrix (fraction); higher = more synergy
# Summary of the method: (§1)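 Bliss excess equals the observed combination effect minus the expected value EA + EB − EA·EB, where EA and EB are the effects of each agent alone. Combination Emax is the second-highest inhibition within the matrix. Inhibition was scaled from CellTiter-Glo 2.0 luminescence, with 0 set by vehicle wells and 1 by blank wells, after 72 hours of two-drug dosing of cells plated in 1536-well plates.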
# [2] = tested on: CADO-ES1 (Ewing's Sarcoma); test: as above
# Summary of the method: as §1
# [3] = tested on: EJM (Plasma Cell Myeloma); test: as above
# Summary of the method: as §1
# [4] = tested on: HCC1937 (Breast Carcinoma); test: as above
# Summary of the method: as §1
# [5] = tested on: OACM5-1 (Esophageal Adenocarcinoma); test: as above
# Summary of the method: as §1
# [6] = tested on: SK-LU-1 (Lung Adenocarcinoma); test: as above
# Summary of the method: as §1
# [7] = tested on: ALL-SIL (T-Lymphoblastic Leukemia); test: combination Emax (second highest fraction inhibited in the dose matrix, 72 h); higher = more inhibition; extreme values may be limits of the assay
# Summary of the method: as §1
# [8] = tested on: CADO-ES1 (Ewing's Sarcoma); test: as above
# Summary of the method: as §1
# [9] = tested on: EJM (Plasma Cell Myeloma); test: as above
# Summary of the method: as §1
# [10] = tested on: EW-1 (Ewing's Sarcoma); test: as above
# Summary of the method: as §1
# [11] = tested on: HCC1500 (Breast Carcinoma); test: as above
# Summary of the method: as §1
# [12] = tested on: HCC2998 (Colorectal Carcinoma); test: as above
# Summary of the method: as §1
# [13] = tested on: Hey (Ovarian Carcinoma); test: as above
# Summary of the method: as §1
# [14] = tested on: LC-1-sq (Squamous Cell Lung Carcinoma); test: as above
# Summary of the method: as §1
# [15] = tested on: NCI-H1092 (Small Cell Lung Carcinoma); test: as above
# Summary of the method: as §1
# [16] = tested on: NCI-H1838 (Lung Adenocarcinoma); test: as above
# Summary of the method: as §1
# [17] = tested on: NCI-H2122 (Lung Adenocarcinoma); test: as above
# Summary of the method: as §1
# [18] = tested on: NCI-H650 (Lung Adenocarcinoma); test: as above
# Summary of the method: as §1
# [19] = tested on: OACM5-1 (Esophageal Adenocarcinoma); test: as above
# Summary of the method: as §1
# [20] = tested on: SK-LU-1 (Lung Adenocarcinoma); test: as above
# Summary of the method: as §1
SMILES,Bliss excess [1],Bliss excess [2],Bliss excess [3],Bliss excess [4],Bliss excess [5],Bliss excess [6],combination Emax [7],combination Emax [8],combination Emax [9],combination Emax [10],combination Emax [11],combination Emax [12],combination Emax [13],combination Emax [14],combination Emax [15],combination Emax [16],combination Emax [17],combination Emax [18],combination Emax [19],combination Emax [20]
"CN(CCO)CC[C@H](CSc1ccccc1)Nc1ccc(S(=O)(=O)NC(=O)c2ccc(N3CCC([C@@H](O)c4ccccc4-c4ccc(Cl)cc4)CC3)cc2)cc1S(=O)(=O)C(F)(F)F [AZD4320] + CCN(CCO)CCCOc1ccc2c(Nc3cc(CC(=O)Nc4cccc(F)c4)[nH]n3)ncnc2c1 [AZD2811] (first compound max 1 µM, 7x7, partner max 1 µM)",-0.0124,-0.0732,0.0454,-0.0513,0.0473,-0.0232,1,0.668,0.406,0.863,0.997,0.753,0.254,0.264,0.866,0.216,0.794,0.157,0.398,0.281
"Cc1cc2ncnn2cc1Nc1ncc2c(n1)n(C1CCOCC1)c(=O)n2C [AZD7648] + O=C(c1cc(Cc2n[nH]c(=O)c3ccccc23)ccc1F)N1CCN(C(=O)C2CC2)CC1 [Olaparib] (first compound max 10 µM, 7x7, partner max 10 µM)",-0.0083,0.0086,-0.0369,-0.0498,-0.0505,-0.066,0.315,0.548,0.2,0.732,0.269,0.321,0.266,0.17,0.111,0.323,0.242,0.14,0.267,0.329
"CN(CCO)CC[C@H](CSc1ccccc1)Nc1ccc(S(=O)(=O)NC(=O)c2ccc(N3CCC([C@@H](O)c4ccccc4-c4ccc(Cl)cc4)CC3)cc2)cc1S(=O)(=O)C(F)(F)F [AZD4320] + Cn1cnc2c(F)c(Nc3ccc(Br)cc3Cl)c(C(=O)NOCCO)cc21 [Selumetinib] (first compound max 1 µM, 7x7, partner max 3 µM)",-0.0006,-0.0085,0.072,-0.0001,0.0624,,1,0.886,0.488,0.921,0.998,0.992,0.533,0.485,0.956,0.209,0.8,0.656,0.427,
"Cc1cc2ncnn2cc1Nc1ncc2c(n1)n(C1CCOCC1)c(=O)n2C [AZD7648] + COc1cc([C@@H]2c3cc4c(cc3[C@@H](O[C@@H]3O[C@@H]5CO[C@@H](C)O[C@H]5[C@H](O)[C@H]3O)[C@H]3COC(=O)[C@H]23)OCO4)cc(OC)c1O [Etoposide] (first compound max 10 µM, 7x7, partner max 10 µM)",,,,,,0.0201,,,,,,,,,,,,,,0.47
"Cc1cc2ncnn2cc1Nc1ncc2c(n1)n(C1CCOCC1)c(=O)n2C [AZD7648] + C[C@@H]1COCCN1C2=NC(=NC(=C2)C3(CC3)[S@](=N)(=O)C)C4=C5C=CNC5=NC=C4 [AZD6738] (first compound max 10 µM, 7x7, partner max 10 µM)",0.0462,0.0364,0.0308,-0.0345,0.0198,,0.925,0.824,0.893,0.871,0.383,0.87,0.689,0.827,0.302,0.612,0.949,0.138,0.443,
"CN(CCO)CC[C@H](CSc1ccccc1)Nc1ccc(S(=O)(=O)NC(=O)c2ccc(N3CCC([C@@H](O)c4ccccc4-c4ccc(Cl)cc4)CC3)cc2)cc1S(=O)(=O)C(F)(F)F [AZD4320] + Nc1ccn([C@@H]2O[C@H](CO)[C@@H](O)C2(F)F)c(=O)n1 [Gemcitabine] (first compound max 1 µM, 7x7, partner max 0.3 µM)",,,,,,-0.036,,,,,,,,,,,,,,0.248
"N#Cc1cnc(Nc2cc(NC[C@H]3CNCCO3)c(C(F)(F)F)cn2)cn1 [SRA737] + O=c1[nH]cc(F)c(=O)[nH]1 [5-Fluorouracil] (first compound max 10 µM, 7x7, partner max 20 µM)",,,,,,-0.0137,,,,,,,,,,,,,,0.369
"Cc1cc2ncnn2cc1Nc1ncc2c(n1)n(C1CCOCC1)c(=O)n2C [AZD7648] + CCN(CCO)CCCOc1ccc2c(Nc3cc(CC(=O)Nc4cccc(F)c4)[nH]n3)ncnc2c1 [AZD2811] (first compound max 10 µM, 7x7, partner max 1 µM)",-0.0416,0.0236,0.0417,0.0064,-0.0151,,0.97,0.377,0.242,0.312,0.445,0.191,0.41,0.325,0.182,0.506,0.355,0.14,0.293,
"CN(CCO)CC[C@H](CSc1ccccc1)Nc1ccc(S(=O)(=O)NC(=O)c2ccc(N3CCC([C@@H](O)c4ccccc4-c4ccc(Cl)cc4)CC3)cc2)cc1S(=O)(=O)C(F)(F)F [AZD4320] + C[C@@H](Nc1cc(F)cc(F)c1)c1cc(C(=O)N(C)C)cc2c(=O)cc(N3CCOCC3)oc12 [AZD8186] (first compound max 1 µM, 7x7, partner max 3 µM)",0.0208,-0.0003,0.0837,-0.008,0.0343,,1,0.919,0.511,0.924,0.992,0.884,0.373,0.336,0.938,0.258,0.536,0.474,0.404,
"CN(CCO)CC[C@H](CSc1ccccc1)Nc1ccc(S(=O)(=O)NC(=O)c2ccc(N3CCC([C@@H](O)c4ccccc4-c4ccc(Cl)cc4)CC3)cc2)cc1S(=O)(=O)C(F)(F)F [AZD4320] + CC(=O)O[C@H]1C(=O)[C@@]2(C)[C@H]([C@H](OC(=O)c3ccccc3)[C@]3(O)C[C@H](OC(=O)[C@H](O)[C@@H](NC(=O)c4ccccc4)c4ccccc4)C(C)=C1C3(C)C)[C@]1(OC(C)=O)CO[C@@H]1C[C@@H]2O [Paclitaxel] (first compound max 1 µM, 7x7, partner max 3 µM)",,,,,,0.116,,,,,,,,,,,,,,0.741
"COc1cc2c(cc1OCCCCCOc1cc3c(cc1OC)C(=O)N1C=C(C)C[C@H]1C=N3)N=C[C@@H]1CC(C)=CN1C2=O [SG3199] + O=C(c1cc(Cc2n[nH]c(=O)c3ccccc23)ccc1F)N1CCN(C(=O)C2CC2)CC1 [Olaparib] (first compound max 0.001 µM, 7x7, partner max 10 µM)",-0.0316,0.0008,-0.0198,-0.0623,-0.0313,,0.337,0.325,0,0.636,0.125,0.389,0.196,0.187,0.152,0.14,0.21,0.136,0.0893,
"N#Cc1cnc(Nc2cc(NC[C@H]3CNCCO3)c(C(F)(F)F)cn2)cn1 [SRA737] + Nc1ccn([C@@H]2O[C@H](CO)[C@@H](O)C2(F)F)c(=O)n1 [Gemcitabine] (first compound max 10 µM, 7x7, partner max 0.3 µM)",,,,,,-0.101,,,,,,,,,,,,,,0.389
"Cc1cc2ncnn2cc1Nc1ncc2c(n1)n(C1CCOCC1)c(=O)n2C [AZD7648] + C=CCn1c(=O)c2cnc(Nc3ccc(N4CCN(C)CC4)cc3)nc2n1-c1cccc(C(C)(C)O)n1 [AZD1775] (first compound max 10 µM, partner max 1 µM)",0.0133,0.0512,-0.012,-0.0069,-0.0206,,0.867,0.45,0.893,0.832,0.424,0.628,0.613,0.91,0.382,0.569,0.766,0.288,0.473,
"N#Cc1cnc(Nc2cc(NC[C@H]3CNCCO3)c(C(F)(F)F)cn2)cn1 [SRA737] + C=CCn1c(=O)c2cnc(Nc3ccc(N4CCN(C)CC4)cc3)nc2n1-c1cccc(C(C)(C)O)n1 [AZD1775] (first compound max 10 µM, partner max 1 µM)",,,,,,0.0096,,,,,,,,,,,,,,0.442
"Cc1cc2ncnn2cc1Nc1ncc2c(n1)n(C1CCOCC1)c(=O)n2C [AZD7648] + CN(C)CCCOc1ccc(-c2ccc3ncc4c(c3c2)n(C2CCOCC2)c(=O)n4C)cn1 [AZD0156] (first compound max 10 µM, 7x7, partner max 1 µM)",0.0467,0.0465,0.072,-0.0129,0.0206,,0.321,0.38,0.225,0.34,0.299,0.299,0.32,0.221,0.0818,0.371,0.253,0.186,0.27,
"N#Cc1cnc(Nc2cc(NC[C@H]3CNCCO3)c(C(F)(F)F)cn2)cn1 [SRA737] + CCc1c2c(nc3ccc(O)cc13)-c1cc3c(c(=O)n1C2)COC(=O)[C@]3(O)CC [SN-38] (first compound max 10 µM, 7x7, partner max 0.3 µM)",,,,,,-0.0943,,,,,,,,,,,,,,0.639
